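Where inhibition never reached the appropriate level, the endpoint shown equals the highest concentration tested. Otherwise, values were interpolated linearly from a five-concentration, 48-hour dose response in 96-well plates. At the TGI there is no net growth.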
Tests used:
Experiment in all cases: NCI tumour cell line growth inhibition, 48 h
LXFL 529 NSCLC = system: LXFL 529 NSCLC
XF 498 CNS = system: XF 498 CNS
DMS 273 small cell lung = system: DMS 273 small cell lung
M19-MEL melanoma = system: M19-MEL melanoma
DLD-1 colon = system: DLD-1 colon
RXF-631 renal = system: RXF-631 renal
P388 leukemia = system: P388 leukemia
SN12K1 renal = system: SN12K1 renal
P388/ADR leukemia = system: P388/ADR leukemia

SMILES	TGI (LXFL 529 NSCLC)	TGI (XF 498 CNS)	TGI (DMS 273 small cell lung)	TGI (M19-MEL melanoma)	TGI (DLD-1 colon)	TGI (RXF-631 renal)	TGI (P388 leukemia)	TGI (SN12K1 renal)	TGI (P388/ADR leukemia)
CC1(C2CCC3(C)OC3C2)CO1 (stereo unspecified)	> 100 µM	> 100 µM	> 100 µM	> 100 µM	> 100 µM	> 100 µM	–	–	–
C#CCC1(C(=O)OCC)C(=O)c2ccccc2N(C)C1=O (stereo unspecified)	> 100 µM	95.9 µM	> 100 µM	> 100 µM	> 100 µM	> 100 µM	–	–	–
O=C1C=CC(=O)c2c(Cl)ccc(O)c21	–	32.7 µM	25.4 µM	30 µM	27.6 µM	–	3.84 µM	> 55.2 µM	1960 nM
Cc1csc(NC(=NCCN2CCOCC2)Nc2nc(C)cs2)n1	–	> 100 µM	> 100 µM	> 100 µM	> 100 µM	–	> 31.6 µM	> 100 µM	> 100000 nM
CC(=O)CC(=O)CCC(=O)O	–	> 100 µM	> 100 µM	> 100 µM	> 100 µM	–	–	–	–
O=C(CC1Sc2ccccc2NC1=O)Nc1ccc(Cl)cc1 (stereo unspecified)	> 100 µM	> 100 µM	> 100 µM	> 100 µM	> 100 µM	> 100 µM	–	–	–

From PubChem BioAssay (NCI)
